# Test results: publication PMC8448819, “The Arabidopsis MIK2 receptor elicits immunity by sensing a conserved signature from phytocytokines and microbes” (Nature Communications, 2021)
# Where “and” joins values, the source holds several entries; their conditions need not be identical. Identical values can stand only once. Entries after “also recorded” stand apart in the source; their conditions may differ. Like-named read-outs stand apart in the source and are kept apart here.
# Legend:
# [1] = system: MYB51 promoter, pMYB51::GUS seedling roots; test: Histochemical GUS staining, pMYB51::GUS; format: in vivo, Arabidopsis thaliana; conditions: pMYB51::GUS seedlings, 1 µM, 3 h
# Source text: Stained samples were fixed with a 3:1 ethanol:acetic acid solution overnight and cleared by lactic acid and photographed with the Olympus SZX10 stereoscopic microscope equipped with DP27 camera.
# [2] = system: MPK3, MPK4 and MPK6 phosphorylation, bak1-4 and bak1-5/serk4 seedlings; test: MAPK assay (α-pERK1/2 immunoblot), coreceptor mutants; format: in vivo, Arabidopsis thaliana
# Description: (§1) Ten-day-old seedlings grown vertically on ½MS plates were transferred to ddH2O overnight for recovery. Then, ddH2O was replaced by 100 nM peptides for the indicated time.
# [3] = system: WRKY30, WRKY33 and CYP81F2 expression, WT seedlings; test: RT-qPCR of defense genes, WT; format: in vivo, Arabidopsis thaliana
# [4] = system: Arabidopsis WT seedling roots; test: Microscopy of root browning and root meristems, WT; format: in vivo, Arabidopsis thaliana
# [5] = system: MPK3, MPK4 and MPK6 phosphorylation, WT seedlings; test: MAPK assay (α-pERK1/2 immunoblot), WT; format: in vivo, Arabidopsis thaliana
# Description: as §1
# [6] = system: mik2-1 and mik2-2 mutant seedlings; format: in vivo, Arabidopsis thaliana; conditions: individual values, one per line
# [7] = system: Arabidopsis WT (Col-0) seedlings; format: in vivo, Arabidopsis thaliana
# [8] = system: WRKY30, WRKY33 and CYP81F2 expression, mik2 seedlings; test: RT-qPCR of defense genes, mik2 mutants; format: in vivo, Arabidopsis thaliana
# p35S::Aequorin seedlings = format: in vivo, Arabidopsis thaliana; conditions: Ca^2+ and ROS bursts, 100 nM
# Arabidopsis WT seedlings = test: ROS assay (luminol), WT seedlings; format: in vivo, Arabidopsis thaliana; conditions: WT seedlings
# Description: ROS burst was determined by a luminol-based assay. […] Then, ddH2O was replaced by 200 µL of reaction solution containing 50 µM of luminol, and 10 µg/mL of horseradish peroxidase (Sigma-Aldrich) supplemented with or without 100 nM or 1 μM peptide. Luminescence was measured immediately after adding the solution with a luminometer (Glomax 20/20n, Promega) with a one-second interval for 15 min. The total values of ROS production were indicated as means of the relative light units (RLUs).
# [9] = system: mik2-1 roots and leaf protoplasts; test: TAMRA-SCOOP12 binding in vivo, mik2-1 (confocal); set-up: species or system Arabidopsis thaliana; conditions: mik2-1, 100 nM TAMRA-SCOOP12, 5 min
# [10] = system: WT roots and leaf protoplasts; test: TAMRA-SCOOP12 binding and competition in vivo, WT (confocal); set-up: species or system Arabidopsis thaliana; conditions: 100 nM TAMRA-SCOOP12, 5 min
substance,measurement,setting,value
"RPPTAPIYLPPSKSRKGKGP [SCOOP13, synthesized SCOOP peptide corresponding to the SxS motif]",MYB51 promoter activity in roots,[1],induced the promoter activities of MYB51
same,MAPK activation in bak1-4,[2]; bak1-4,reduced in bak1-4
same,MAPK activation in bak1-5/serk4,[2]; bak1-5/serk4,substantially blocked in bak1-5/serk4
same,"WRKY30, WRKY33 and CYP81F2 expression","[3]; 1 µM, 1 h, RT-qPCR",upregulation
same,CYP81F2 expression (Fig. 3i),[3]; repeat 1,41.34
same,CYP81F2 expression (Fig. 3i),[3]; repeat 2,47.71
same,CYP81F2 expression (Fig. 3i),[3]; repeat 3,93.81
same,CYP81F2 expression (Fig. 3i),[3]; repeat 4,121.82
same,root browning,"[4]; WT seedlings, prolonged treatment",led to brown roots
same,root meristem distortion,"[4]; WT, 5-day-old seedlings, 1 µM, 48 h, PI staining",distorted root meristems
same,MAPK activation in shoots and roots,[5]; Supplementary Fig. 3i,triggered the MAPK activation in both shoots and roots
same,Root length (Fig. 3e),[6]; mik2-1,22.796 and 23.072 and 22.084 and 23.813 and 22.472 and 23.316 and 25.007 and 26.178 and 24.196 and 22.194
same,Root length (Fig. 3e),[6]; mik2-2,23.916 and 28.782 and 22.331 and 28.855 and 26.162 and 23.502 and 23.674 and 22.828 and 26.36 and 25.263 and 22.35
same,root growth inhibition,[7]; in vivo,"inhibited root growth to various degrees, with SCOOP10^B and 13 being the most active; also recorded: potent in inhibiting root growth"
same,CYP81F2 expression (Fig. 3i),"[8]; mik2-1, repeat 1",0.33
same,CYP81F2 expression (Fig. 3i),"[8]; mik2-1, repeat 2",0.51
same,CYP81F2 expression (Fig. 3i),"[8]; mik2-1, repeat 3",2.20
same,CYP81F2 expression (Fig. 3i),"[8]; mik2-1, repeat 4",5.48
same,CYP81F2 expression (Fig. 3i),"[8]; mik2-2, repeat 1",3.17
same,CYP81F2 expression (Fig. 3i),"[8]; mik2-2, repeat 2",4.70
same,CYP81F2 expression (Fig. 3i),"[8]; mik2-2, repeat 3",4.82
same,CYP81F2 expression (Fig. 3i),"[8]; mik2-2, repeat 4",7.05
same,"WRKY30, WRKY33 and CYP81F2 expression","[8]; mik2 mutants, 1 µM, 1 h, RT-qPCR",abolished in mik2 mutants
same,"ROS production, SCOOP13 and 14 relative to other SCOOPs, and Ca^2+ bursts",p35S::Aequorin seedlings,relatively weak activities for Ca^2+ and ROS bursts
same,"ROS production, total luminescence (Fig. 2h)",Arabidopsis WT seedlings; repeat 1,1290342
same,"ROS production, total luminescence (Fig. 2h)",Arabidopsis WT seedlings; repeat 2,1525381
same,"ROS production, total luminescence (Fig. 2h)",Arabidopsis WT seedlings; repeat 3,622461
"TAMRA-MGSGASGPVRSSQSSQAGGR [TAMRA-SCOOP12, red fluorescent tetramethylrhodamine (TAMRA)-labeled SCOOP12 peptides at its N-terminus]",MAPK activation by labelled peptide vs SCOOP12,"[5]; Supplementary Fig. 5c, MIK2-dependent",slightly lesser extent than SCOOP12
same,bioactivity of labelled peptide: root growth inhibition vs SCOOP12,"[7]; Supplementary Fig. 5a, b, MIK2-dependent",slightly lesser extent than SCOOP12
same,red fluorescent labelling of root tips and leaf protoplasts,[9],not in mik2-1
same,red fluorescent labelling of root tips and leaf protoplasts,[10],Red fluorescent signals were detected
